Test results from paper PMC5432002, “The active site structure and catalytic mechanism of arsenite oxidase” (Scientific Reports, 2017).

Biological target: T1, NT-26 arsenite oxidase (NT-26 Aio) (Pseudorhizobium banfieldiae, UniProt Q6VAL8)
T1 construct: gene aroA; A subunit with Mo site and [3Fe-4S], B subunit with Rieske [2Fe-2S]; with Arsenite oxidase subunit AioB
Type: binding

Q: How did the “Mo....As EXAFS interaction” value turn out when O[As](O)O [arsenite] was run?
A: suggesting the presence of bound substrate or product through a Mo—O—As linkage
